The results in this text go back to patent US8247442B2, “Benzenesulfonamide compounds and their use” (Purdue Pharma L.P., priority 2006, dated 2012).

pIC50: −log10 of the molar value.

The target in assay [1] is T1, N-type calcium channel (NTCC) (Homo sapiens, UniProt Q00975).
T1 construct: endogenous in cells; host or cells: IMR32 cells (ATCC), differentiated with dibutyryl cAMP and bromodeoxyuridine
The assay can be described thus: FLIPR calcium mobilization assay for N-type calcium channel. The settings on record: calcium mobilization in vitro assay; differentiated IMR32 cells, 90 mM KCl, 5 μM nitrendipine. Type of assay: cell-based. Here is the method: Cell maintenance and differentiation. Unless noted otherwise, cell culture reagents were purchased from Mediatech of Hemdon, Md. IMR32 cells (American Type Culture Collection, ATCC, Manassas, Va.) were routinely cultured in growth medium consisting of minimum essential medium containing 10% fetal bovine serum (FBS, Hyclone, Logan, Utah), 100 U/mL penicillin, 100 μg/mL streptomycin, 2 mM L-glutamine, 1 mM sodium pyruvate, and 1×MEM non-essential amino acids. 80-90% confluent flasks of cells were differentiated using the following differentiation medium: Growth medium plus 1 mM dibutyryl cyclic AMP (Sigma, St. Louis, Mo.), and 2.5 μM bromodeoxyuridine (Sigma). Cells were differentiated for 8 days by replacing differentiation medium every 2-3 days.
FLIPR Calcium Mobilization Assay for N-type Calcium Channel. One day prior to performing this assay, differentiated IMR32 cells were treated with 1× CellStripper, and seeded on poly-D-lysine-coated 96-well clear-bottom black plates (Becton Dickinson, Franklin Lakes, N.J.) at 200,000 cells/well. On the day of the assay, the cell plates were washed with IMR32 buffer (127 mM NaCl, 1 mM KCl, 2 mM MgCl2, 700 μM NaH2PO4, 5 mM CaCl2, 5 mM NaHCO3, 8 mM HEPES, 10 mM glucose, pH 7.4), then pre-stimulated with KCl and loaded as follows: 0.05 mL of IMR32 buffer, 0.05 mL of each compound tested diluted in IMR32 buffer containing 20 μM nitrendipine (Sigma), and 0.1 mL KCl dissolved in IMR32 buffer, plus Fluo-4 were added (3 μM final concentration, Molecular Probes, Eugene, Oreg.). Final test compound concentrations ranged from about 846 μM to about 17 μM, final nitrendipine concentration was 5 μM, and final KCl concentration was 90 mM. After 1 hour, the cells were washed twice with 0.05 mL of each compound tested in nitrendipine-containing IMR32 buffer (no KCl or Fluo-4), and then replaced with 0.1 mL of each compound tested in nitrendipine-containing IMR32 buffer. Plates were then transferred to a Fluorimetric Imaging Plate Reader (FLIPR^96, Molecular Devices, Inc., Sunnyvale, Calif.) for assay. The FLIPR measured basal Fluo-4 fluorescence for 315 seconds (i.e., 5 minutes and 15 seconds), then added 0.1 mL KCl agonist dissolved in IMR32 buffer and measured fluorescence for another 45 seconds. Final test compound concentrations on the cells after FLIPR read ranged from about 846 μM to about 17 μM, final nitrendipine concentration was 5 μM, and final KCl concentration was 90 mM. Data were collected over the entire time course and analyzed using Excel, Graph Pad Prism (version 3.02, Graph Pad, San Diego, Calif.), or an in-house non-linear regression analysis software.
Background: Calcium assays in cells follow changes in intracellular calcium, usually with a dye or a luminescent sensor.

The target of assay [2] is T2, recombinant rat L-type calcium channel (LTCC) subunits (α1c, α2δ, and β1) (Rattus norvegicus, UniProt P22002).
T2 construct: expressed in transfected cells; pcDNA6.2DEST α1c, pcDNA3.2DEST β1, pcDNA3.1-Zeo α2δ)
T2 sequence (P22002 whole entry): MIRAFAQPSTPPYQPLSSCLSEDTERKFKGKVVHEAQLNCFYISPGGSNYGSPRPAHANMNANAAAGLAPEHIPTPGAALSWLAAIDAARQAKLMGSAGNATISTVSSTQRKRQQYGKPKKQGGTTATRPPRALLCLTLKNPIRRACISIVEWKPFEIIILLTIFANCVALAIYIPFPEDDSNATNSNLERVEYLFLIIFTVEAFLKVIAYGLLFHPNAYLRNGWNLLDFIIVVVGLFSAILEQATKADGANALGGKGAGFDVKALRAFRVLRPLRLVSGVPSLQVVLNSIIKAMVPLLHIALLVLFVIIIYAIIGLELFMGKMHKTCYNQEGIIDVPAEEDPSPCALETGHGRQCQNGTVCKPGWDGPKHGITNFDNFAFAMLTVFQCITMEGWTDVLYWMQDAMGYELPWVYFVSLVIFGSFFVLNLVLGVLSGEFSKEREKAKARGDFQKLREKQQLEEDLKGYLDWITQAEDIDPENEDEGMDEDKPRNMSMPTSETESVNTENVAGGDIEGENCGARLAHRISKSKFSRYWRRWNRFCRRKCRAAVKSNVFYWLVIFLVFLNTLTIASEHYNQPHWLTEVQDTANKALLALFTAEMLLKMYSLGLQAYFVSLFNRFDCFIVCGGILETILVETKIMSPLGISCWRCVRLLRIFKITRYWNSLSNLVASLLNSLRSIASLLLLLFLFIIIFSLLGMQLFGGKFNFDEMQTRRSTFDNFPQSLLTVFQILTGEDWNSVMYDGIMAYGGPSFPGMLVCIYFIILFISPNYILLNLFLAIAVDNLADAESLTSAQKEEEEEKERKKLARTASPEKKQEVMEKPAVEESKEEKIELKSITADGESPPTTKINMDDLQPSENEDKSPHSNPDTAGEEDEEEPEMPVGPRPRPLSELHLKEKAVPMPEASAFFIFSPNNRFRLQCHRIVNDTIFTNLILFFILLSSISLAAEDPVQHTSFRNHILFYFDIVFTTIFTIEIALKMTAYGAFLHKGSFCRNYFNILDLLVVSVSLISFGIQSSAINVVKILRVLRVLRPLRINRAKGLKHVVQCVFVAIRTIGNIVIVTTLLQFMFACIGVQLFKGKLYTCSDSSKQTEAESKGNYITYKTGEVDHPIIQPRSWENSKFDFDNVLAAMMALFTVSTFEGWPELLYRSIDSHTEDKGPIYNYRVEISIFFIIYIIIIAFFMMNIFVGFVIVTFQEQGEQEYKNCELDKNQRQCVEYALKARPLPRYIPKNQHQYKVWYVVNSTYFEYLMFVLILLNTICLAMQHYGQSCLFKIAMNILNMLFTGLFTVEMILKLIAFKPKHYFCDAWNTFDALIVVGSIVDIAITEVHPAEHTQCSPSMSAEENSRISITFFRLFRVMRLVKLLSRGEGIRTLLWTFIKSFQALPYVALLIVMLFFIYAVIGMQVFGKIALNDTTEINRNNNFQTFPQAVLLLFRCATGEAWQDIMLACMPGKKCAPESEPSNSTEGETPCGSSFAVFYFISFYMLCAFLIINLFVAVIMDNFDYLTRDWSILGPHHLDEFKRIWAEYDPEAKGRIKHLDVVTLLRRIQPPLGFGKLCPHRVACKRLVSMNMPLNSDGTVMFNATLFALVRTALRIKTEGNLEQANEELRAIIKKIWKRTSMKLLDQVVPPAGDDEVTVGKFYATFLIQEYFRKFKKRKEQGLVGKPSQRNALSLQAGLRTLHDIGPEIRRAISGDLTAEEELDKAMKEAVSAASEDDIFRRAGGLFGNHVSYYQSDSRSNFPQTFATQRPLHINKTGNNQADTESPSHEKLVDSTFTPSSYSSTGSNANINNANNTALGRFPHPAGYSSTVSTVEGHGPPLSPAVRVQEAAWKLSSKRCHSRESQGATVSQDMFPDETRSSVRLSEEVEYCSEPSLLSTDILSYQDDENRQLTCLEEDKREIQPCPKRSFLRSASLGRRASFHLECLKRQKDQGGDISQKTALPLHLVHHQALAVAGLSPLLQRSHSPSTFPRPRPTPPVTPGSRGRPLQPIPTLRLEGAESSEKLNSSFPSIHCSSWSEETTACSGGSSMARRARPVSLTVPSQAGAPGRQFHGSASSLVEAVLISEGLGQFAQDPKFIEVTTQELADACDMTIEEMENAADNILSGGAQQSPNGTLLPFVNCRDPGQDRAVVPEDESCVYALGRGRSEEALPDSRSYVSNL
T2 sequence (P54290 25-944 partner): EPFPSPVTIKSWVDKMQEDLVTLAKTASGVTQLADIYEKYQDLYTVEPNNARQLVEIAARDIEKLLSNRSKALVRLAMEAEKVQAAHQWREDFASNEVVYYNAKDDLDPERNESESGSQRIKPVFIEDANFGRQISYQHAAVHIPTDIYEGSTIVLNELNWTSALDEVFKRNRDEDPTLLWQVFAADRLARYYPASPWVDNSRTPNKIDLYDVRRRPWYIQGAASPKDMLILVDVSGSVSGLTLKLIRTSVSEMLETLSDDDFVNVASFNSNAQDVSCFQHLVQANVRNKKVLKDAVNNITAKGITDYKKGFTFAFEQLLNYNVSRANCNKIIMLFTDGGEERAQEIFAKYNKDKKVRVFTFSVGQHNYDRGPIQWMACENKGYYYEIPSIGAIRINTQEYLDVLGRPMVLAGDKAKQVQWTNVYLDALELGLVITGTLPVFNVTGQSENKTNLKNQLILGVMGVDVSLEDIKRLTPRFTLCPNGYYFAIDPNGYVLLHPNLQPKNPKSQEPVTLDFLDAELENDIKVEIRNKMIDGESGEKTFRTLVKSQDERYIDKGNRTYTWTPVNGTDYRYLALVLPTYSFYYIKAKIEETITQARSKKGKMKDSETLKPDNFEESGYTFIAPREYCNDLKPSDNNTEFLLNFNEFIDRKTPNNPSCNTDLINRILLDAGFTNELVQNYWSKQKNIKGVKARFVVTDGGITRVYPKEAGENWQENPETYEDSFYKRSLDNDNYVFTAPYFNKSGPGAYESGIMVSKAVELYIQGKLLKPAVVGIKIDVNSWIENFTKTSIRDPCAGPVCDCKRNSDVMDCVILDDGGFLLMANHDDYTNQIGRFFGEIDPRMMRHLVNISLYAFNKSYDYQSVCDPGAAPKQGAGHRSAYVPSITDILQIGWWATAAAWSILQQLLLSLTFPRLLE
T2 sequence (P54290 945-1091 partner): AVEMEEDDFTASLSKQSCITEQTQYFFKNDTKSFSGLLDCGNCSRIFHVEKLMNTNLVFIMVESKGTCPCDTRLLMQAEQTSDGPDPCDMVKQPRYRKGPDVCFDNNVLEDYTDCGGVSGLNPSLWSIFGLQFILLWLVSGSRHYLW
T2 sequence (P54283 whole entry partner): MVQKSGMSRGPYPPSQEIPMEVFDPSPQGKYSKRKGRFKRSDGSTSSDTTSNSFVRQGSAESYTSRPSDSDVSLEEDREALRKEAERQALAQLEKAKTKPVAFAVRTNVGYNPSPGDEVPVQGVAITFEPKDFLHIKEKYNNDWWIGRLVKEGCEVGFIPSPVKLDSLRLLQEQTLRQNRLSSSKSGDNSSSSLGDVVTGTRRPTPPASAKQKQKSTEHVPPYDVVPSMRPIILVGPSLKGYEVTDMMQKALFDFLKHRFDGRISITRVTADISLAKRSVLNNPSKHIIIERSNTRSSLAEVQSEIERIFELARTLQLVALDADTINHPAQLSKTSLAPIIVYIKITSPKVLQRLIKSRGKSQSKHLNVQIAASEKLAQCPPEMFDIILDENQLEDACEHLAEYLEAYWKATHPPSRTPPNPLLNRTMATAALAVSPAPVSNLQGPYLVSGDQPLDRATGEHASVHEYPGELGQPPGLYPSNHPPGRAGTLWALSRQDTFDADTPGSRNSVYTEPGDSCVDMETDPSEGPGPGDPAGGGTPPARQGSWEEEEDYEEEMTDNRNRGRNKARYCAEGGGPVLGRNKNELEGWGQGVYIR
Kind of assay: FLIPR calcium mobilization assay for L-type calcium channel. Type of assay: cell-based. Particulars: calcium mobilization in vitro assay; HEK293 cells stably expressing LTCC, 90 mM KCl. Here is the method: Recombinant human embryonal kidney cells (HEK293, ATCC) stably transfected with either N-type calcium channel (NTCC) subunits (α1b, α2δ, and β3) or L-type calcium channel (LTCC) subunits (α1c, α2δ, and β1) were routinely cultured in growth medium consisting of Dulbecco's Modified Eagles Medium containing 10% FBS, 100 U/mL penicillin, 100 μg/mL streptomycin, 4 mM L-glutamine, 500 μg/mL geneticin (G418), 20 μg/mL Blasticidin S (InVivogen, San Diego, Calif.) and 500 μg/mL zeocin (InVivogen).
FLIPR Calcium Mobilization Assay for L-type Calcium Channel. One day prior to performing this assay, HEK293 cells stably expressing recombinant rat L-type calcium channel (LTCC) subunits (α1c, α2δ, and β1) were trypsinized, then seeded on poly-D-lysine-coated 96-well clear-bottom black plates (Becton Dickinson, Franklin Lakes, N.J.) at 75,000 cells/well. On the day of the assay, the plates were washed with LTCC wash buffer (127 mM NaCl, 2 mM MgCl2, 700 μM NaH2PO4, 5 mM CaCl2, 5 mM NaHCO3, 8 mM HEPES, 10 mM glucose, pH 7.4), then loaded with 0.1 mL of LTCC wash buffer containing Fluo-4 (3 μM final concentration, Molecular Probes, Eugene, Oreg.). After 1 hour, the cells were washed with 0.1 mL LTCC wash buffer and resuspended in 0.05 mL LTCC assay buffer (same composition as LTCC wash buffer). Plates were then transferred to a FLIPR^96 for assay. The FLIPR measured basal Fluo-4 fluorescence for 15 seconds, then added 0.05 mL of each compound tested diluted in LTCC assay buffer at final concentrations ranging from about 846 pM to about 17 μM. Fluo-4 fluorescence was then measured for 5 minutes. 0.1 mL KCl agonist dissolved in LTCC assay buffer was then added to the cells to produce a final concentration of 90 mM KCl, and fluorescence was measured for another 45 seconds. Data were collected over the entire time course and analyzed using Excel, Graph Pad Prism, or an in-house regression analysis software.
L-type Recombinant Cell Line Development. L-type calcium channel expressing HEK-293 cells were created in two stages. Stage 1 was created as follows. The rat α1c, and β1 cDNA expression constructs (2.5 μg each) were co-transfected into human embryonic kidney (HEK-293) cells by Lipofectamine Plus reagent (Invitrogen), as per manufacturer's instructions. 24 hours later, cells were split in limiting dilution into multiple 96-well plates in selection media containing 20 μg/mL blasticidin and 500 μg/mL geneticin, and incubated for 3 weeks at 37° C., 5% CO2, 95% humidity. Plates containing ≦1 clone per well were cultured until wells positive for single clones were confluent. Individual clones were then arrayed into columns of a destination 96-well plate, and partly split into 6-well plates for culture maintenance. Array plates were washed once with LTCC wash (or assay) buffer and cells loaded for 1 hour with 0.1 mL of LTCC buffer containing Fluo-4 (3 μM final concentration, Molecular Probes). Then they were washed twice with 0.1 mL of LTCC buffer, and replaced with 0.1 mL LTCC buffer. Plates were then transferred to a FLIPR^96 for assay. The FLIPR measured basal Fluo-4 fluorescence for 315 seconds, then added 0.1 mL KCl agonist dissolved in LTCC buffer and measured fluorescence for another 45 seconds. Final KCl concentration was 90 mM. Data were collected over the entire time course and analyzed using Excel, Graph Pad Prism, or Activity Base software. The clone with the greatest signal-to-noise ratio, best stability of response with passage number, and best adhesion to PDL precoated plates (Becton Dickinson) was expanded, characterized and used for stage 2 cell line development.
Stage 2 of L-type cell line development was carried out as follows. The rat α2δ cDNA expression construct (5 μg each) was transfected into the stage 1 L-type clonal cell line by Lipofectamine Plus reagent (Invitrogen), as per manufacturer's instructions. […]

As a reminder, the pIC50 is the negative decadic logarithm of the IC50, by convention in mol/L.

As to `COCCNCCC(=O)N1CCCC(N(C2CC2)S(=O)(=O)c2cccc(C(F)(F)F)c2)C1` (centres unmarked) [N-Cyclopropyl-N-{1-[3-(2-methoxyethylamino)propionyl]piperidin-3-yl}-3-trifluoromethylbenzenesulfonamide], the figures for the negative-log IC50 (pIC50) in assay [1] and in assay [2] were 6.09 and 4.70 to 5.00, respectively.
